In PMC7932080, “In vitro study of Hesperetin and Hesperidin as inhibitors of zika and chikungunya virus proteases” (PLoS ONE, 2021):
Values joined by “and” are separate entries in the source; they are usually repeats but may differ in a detail not shown here. Identical values can stand only once. Like-named read-outs stand apart in the source and are kept apart here.

Tests used:
[1] = target: T1, ZIKV NS2B/NS3^pro (Zika virus, UniProt A0A024B7W1); parameters: method as in PMID 28700665; conditions: cited from earlier work
T1 sequence (A0A024B7W1 1425-1464): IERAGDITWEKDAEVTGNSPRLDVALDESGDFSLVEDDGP
T1 sequence (A0A024B7W1 1503-1680): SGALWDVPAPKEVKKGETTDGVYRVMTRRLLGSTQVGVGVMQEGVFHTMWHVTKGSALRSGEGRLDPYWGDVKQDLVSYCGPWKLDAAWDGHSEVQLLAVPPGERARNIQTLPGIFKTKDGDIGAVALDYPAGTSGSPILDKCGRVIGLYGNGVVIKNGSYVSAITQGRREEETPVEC

[2] = target: T2, CHIKV nsP2^pro (Chikungunya virus, UniProt Q8JUX6); parameters: method as in PMID 32791353; conditions: cited from earlier work
T2 sequence (Q8JUX6 1001-1333): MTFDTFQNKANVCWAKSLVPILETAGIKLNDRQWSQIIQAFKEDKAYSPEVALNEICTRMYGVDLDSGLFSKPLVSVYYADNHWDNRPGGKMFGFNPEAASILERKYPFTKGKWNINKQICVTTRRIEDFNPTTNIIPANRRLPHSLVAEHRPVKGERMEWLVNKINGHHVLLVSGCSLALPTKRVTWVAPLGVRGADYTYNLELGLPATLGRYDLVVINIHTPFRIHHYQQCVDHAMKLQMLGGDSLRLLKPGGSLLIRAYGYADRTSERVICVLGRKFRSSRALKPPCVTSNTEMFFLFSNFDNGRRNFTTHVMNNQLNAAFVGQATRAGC

[3] = target: T2, CHIKV nsP2^pro; experiment: CHIKV nsP2^pro FRET-based inhibition assay; assay type: biochemical; conditions: for % activity, mean / % inhibition, mean: mean n=3
[4] = system: trypsin; parameters: method as in PMID 23124490; conditions: cited from earlier work
[5] = system: CHIKV; conditions: cited from earlier work
[6] = dose of administration 20 mg/kg, cited from earlier work
[7] = cited from earlier work
[8] = cited from earlier work; remark: listed apart in the source
[9] = system: Vero cells; experiment: Cell viability through MTT assay
[10] = target: T2, CHIKV nsP2^pro; experiment: Intrinsic Trp fluorescence titration (KD); conditions: Trp fluorescence quenching, ± STD
[11] = target: T2, CHIKV nsP2^pro; experiment: Thermal unfolding by fluorescence spectroscopy; conditions: 10 µM protease, 75 µM ligand
[12] = system: CHIKV; experiment: Plaque reduction antiviral assay in Vero cells; conditions: ~50 PFU, two inhibitor concentrations
[13] = target: T1, ZIKV NS2B/NS3^pro; experiment: ZIKV NS2B/NS3^pro inhibition assay, fluorogenic substrate Pyr-Arg-Thr-Lys-Arg-AMC; conditions: compound 20 µM

COc1cc(-c2oc3cc(O)cc(O)c3c(=O)c2O)ccc1O [Isorhamnetin]
IC50 [1]: 15.5 ± 0.7 µM | Inhibition mode [1]: noncompetitive

O=c1cc(-c2ccc(O)cc2)oc2cc(O)cc(O)c12 [Apigenin]
IC50 [1]: 56.3 ± 0.9 µM | Inhibition mode [1]: noncompetitive

CCCc1nc2c(C)cc(-c3nc4ccccc4n3C)cc2n1Cc1ccc(-c2ccccc2C(=O)O)cc1 [Telmisartan]
IC50 [2]: 5 µM

O=c1c(O)c(-c2ccc(O)c(O)c2)oc2cc(O)cc(O)c12 [Quercetin]
IC50 [1]: 2.4 ± 0.2 µM | Inhibition mode [1]: noncompetitive

COc1ccc([C@@H]2CC(=O)c3c(O)cc(O[C@@H]4O[C@H](CO[C@@H]5O[C@@H](C)[C@H](O)[C@@H](O)[C@H]5O)[C@@H](O)[C@H](O)[C@H]4O)cc3O2)cc1O [HSD, 3’,5,7-trihydroxy-4’-methoxy-flavanone-7-rhamnoglucoside]
IC50 ([3]; 1 µM protease, 3 µM substrate, mean ± SD, n=3): < 10000 nM | LE (ligand efficiency) ([3]; (1.4*pIC50)/N): 0.17 | % activity, mean ([3]; HSD 0.25 (µM)): 97.3333% | % inhibition, mean ([3]; HSD 0.25 (µM)): 2.667% | % activity, mean ([3]; HSD 0.5 (µM)): 90.3333% | % inhibition, mean ([3]; HSD 0.5 (µM)): 9.667% | inhibition at 0.5 µM ([3]; HSD 0.5 (µM), replicates A-C): 11% | % activity, mean ([3]; HSD 1 (µM)): 82% | % inhibition, mean ([3]; HSD 1 (µM)): 18% | % activity ([3]; HSD 1 (µM), replicates A-C): 84% | % inhibition ([3]; HSD 1 (µM), replicates A-C): 16% | inhibition at 1 µM ([3]; HSD 1 (µM), replicates A-C): 22% | % activity, mean ([3]; HSD 2.5 (µM)): 72.3333% | % inhibition, mean ([3]; HSD 2.5 (µM)): 27.6667% | inhibition at 2.5 µM ([3]; HSD 2.5 (µM), replicates A-C): 33% | % activity, mean ([3]; HSD 5 (µM)): 54.6667% | % inhibition, mean ([3]; HSD 5 (µM)): 45.3333% | inhibition at 5 µM ([3]; HSD 5 (µM), replicates A-C): 49% | % activity, mean ([3]; HSD 10 (µM)): 39.6667% | % inhibition, mean ([3]; HSD 10 (µM)): 60.3333% | inhibition at 10 µM ([3]; HSD 10 (µM), replicates A-C): 62% | % activity, mean ([3]; HSD 15 (µM)): 28.6667% | % inhibition, mean ([3]; HSD 15 (µM)): 71.3333% | % activity ([3]; HSD 15 (µM), replicates A-C): 30% | % inhibition ([3]; HSD 15 (µM), replicates A-C): 70% | inhibition at 15 µM ([3]; HSD 15 (µM), replicates A-C): 74% | % activity, mean ([3]; HSD 20 (µM)): 21% | % inhibition, mean ([3]; HSD 20 (µM)): 79% | inhibition at 20 µM ([3]; HSD 20 (µM), replicates A-C): 82% | % activity, mean ([3]; HSD 25 (µM)): 10.3333% | % inhibition, mean ([3]; HSD 25 (µM)): 89.6667% | inhibition at 25 µM ([3]; HSD 25 (µM), replicates A-C): 93% | % activity, mean ([3]; HSD 30 (µM)): 6% | % inhibition, mean ([3]; HSD 30 (µM)): 94% | inhibition at 30 µM ([3]; HSD 30 (µM), replicates A-C): 97% | % activity, mean ([3]; HSD 35 (µM)): 3% | inhibition at 35 µM ([3]; HSD 35 (µM), replicates A-C): 99% | % activity, mean ([3]; HSD 40 (µM)): 0.4% | % inhibition, mean ([3]; HSD 40 (µM)): 99.6% | inhibition at 40 µM ([3]; HSD 40 (µM), replicates A-C): 99.7% | inhibition at 45 µM ([3]; HSD 45 (µM), replicates A-C): 100% | IC50 ([3]; IC50, 1 µM protease, 3 µM substrate, mean ± SD, n=3): 7100 ± 1100 nM | IC50 ([3]; IC50, single replicate, HSD, single replicates A, B, C): 8.32 µM (2×) and 5.62 µM (2×) and 7.24 µM (2×) | Inhibition mode ([3]; Lineweaver-Burk plot): noncompetitive | IC50 ([3]; Log conc nM (IC50 determination triplicate), HSD, single replicates A, B, C): 8320 nM and 5620 nM and 7240 nM | IC50 ([3]; pIC50, from IC50 by online tool): 6310 nM | remaining activity at 0.25 µM ([3]; read-out: % activity, HSD 0.25 (µM), replicates A-C): 95% | remaining activity at 0.5 µM ([3]; read-out: % activity, HSD 0.5 (µM), replicates A-C): 89% | remaining activity at 1 µM ([3]; read-out: % activity, HSD 1 (µM), replicates A-C): 78% | remaining activity at 2.5 µM ([3]; read-out: % activity, HSD 2.5 (µM), replicates A-C): 67% | remaining activity at 5 µM ([3]; read-out: % activity, HSD 5 (µM), replicates A-C): 51% | remaining activity at 10 µM ([3]; read-out: % activity, HSD 10 (µM), replicates A-C): 38% | remaining activity at 15 µM ([3]; read-out: % activity, HSD 15 (µM), replicates A-C): 26% | remaining activity at 20 µM ([3]; read-out: % activity, HSD 20 (µM), replicates A-C): 18% | remaining activity at 25 µM ([3]; read-out: % activity, HSD 25 (µM), replicates A-C): 7% | remaining activity at 45 µM ([3]; read-out: % activity, HSD 45 (µM), replicates A-C): 0% | inhibition at 20 µM ([3]; read-out: Inhibition of protease activity, preliminary inhibition test, compound 20 µM): > 60% | IC50 [4]: 127 µM | Intracellular replication of CHIKV [5]: inhibit | AUC inf. [6]: 4.92 ± 0.38 µM·h | AUC last [6]: 4.12 ± 0.26 µM·h | Cl systemic clearance [6]: 112 ± 9.67 mL/min/kg | MRT mean residence time [6]: 4.22 ± 0.67 h | T1/2 elimination half-life [6]: 6.74 ± 0.79 h | Vd volume of distribution [6]: 64.58 ± 3.70 L/kg | C0 ([6]; read-out: Co initial concentration): 7.47 ± 1.64 µM | Potential maximal tolerated dose [7]: Citrus flavonoids are extremely safe and without side effects also up to high concentrations of 100 mg/kg to 500 mg/kg. | Bioavailability [8]: limited bioavailability | Cytotoxic effect at the calculated IC50 concentrations ([9]; 2.3 to 300 µM, 2 days): no cytotoxic effect | 50% cytotoxic concentration ([9]; 48 h, concentrations up to 300 µM): > 300 µM | Kd [10]: 40.7 ± 2 µM | Melting temperature (Tm) of protease-ligand complex [11]: 52 °C | ΔTm [11]: 5 °C | Antiviral activity, plaque reduction [12]: no antiviral activities | Inhibition of protease activity, preliminary inhibition test [13]: not relevant inhibition

CO[C@@H]1[C@@H](OC(N)=O)[C@@H](O)[C@H](Oc2ccc3c(O)c(NC(=O)c4ccc(O)c(CC=C(C)C)c4)c(=O)oc3c2C)OC1(C)C [Novobiocin]
IC50 [2]: 2 µM

COc1cc(/C=C/C(=O)CC(=O)/C=C/c2ccc(O)c(OC)c2)ccc1O [Curcumin]
Inhibition mode [1]: noncompetitive

O=c1c(O)c(-c2cc(O)c(O)c(O)c2)oc2cc(O)cc(O)c12 [Myricetin]
IC50 [1]: 1.3 ± 0.1 µM | Inhibition mode [1]: noncompetitive

O=c1cc(-c2ccc(O)c(O)c2)oc2cc(O)cc(O)c12 [Luteolin]
Inhibition mode [1]: noncompetitive
